In US20250325687A1, “CONJUGATE COMPRISING TOLL-LIKE RECEPTOR AGONIST” (MABSOFT THERAPEUTICS (SHANGHAI) CO., LTD., priority 2022, published 2025):

How the values were obtained:
[1] = target: T1, hTLR8 (human Toll-like receptor 8) (Homo sapiens, UniProt Q9NR97); test: hTLR8 cell assay (HEK-Blue hTLR8 reporter cells); format: cell-based; settings: 24 hours, OD 650 nm
T1 construct: host or cells: HEK-Blue hTLR8 (HEK293-derived reporter cells)
T1 sequence (Q9NR97 27-1041): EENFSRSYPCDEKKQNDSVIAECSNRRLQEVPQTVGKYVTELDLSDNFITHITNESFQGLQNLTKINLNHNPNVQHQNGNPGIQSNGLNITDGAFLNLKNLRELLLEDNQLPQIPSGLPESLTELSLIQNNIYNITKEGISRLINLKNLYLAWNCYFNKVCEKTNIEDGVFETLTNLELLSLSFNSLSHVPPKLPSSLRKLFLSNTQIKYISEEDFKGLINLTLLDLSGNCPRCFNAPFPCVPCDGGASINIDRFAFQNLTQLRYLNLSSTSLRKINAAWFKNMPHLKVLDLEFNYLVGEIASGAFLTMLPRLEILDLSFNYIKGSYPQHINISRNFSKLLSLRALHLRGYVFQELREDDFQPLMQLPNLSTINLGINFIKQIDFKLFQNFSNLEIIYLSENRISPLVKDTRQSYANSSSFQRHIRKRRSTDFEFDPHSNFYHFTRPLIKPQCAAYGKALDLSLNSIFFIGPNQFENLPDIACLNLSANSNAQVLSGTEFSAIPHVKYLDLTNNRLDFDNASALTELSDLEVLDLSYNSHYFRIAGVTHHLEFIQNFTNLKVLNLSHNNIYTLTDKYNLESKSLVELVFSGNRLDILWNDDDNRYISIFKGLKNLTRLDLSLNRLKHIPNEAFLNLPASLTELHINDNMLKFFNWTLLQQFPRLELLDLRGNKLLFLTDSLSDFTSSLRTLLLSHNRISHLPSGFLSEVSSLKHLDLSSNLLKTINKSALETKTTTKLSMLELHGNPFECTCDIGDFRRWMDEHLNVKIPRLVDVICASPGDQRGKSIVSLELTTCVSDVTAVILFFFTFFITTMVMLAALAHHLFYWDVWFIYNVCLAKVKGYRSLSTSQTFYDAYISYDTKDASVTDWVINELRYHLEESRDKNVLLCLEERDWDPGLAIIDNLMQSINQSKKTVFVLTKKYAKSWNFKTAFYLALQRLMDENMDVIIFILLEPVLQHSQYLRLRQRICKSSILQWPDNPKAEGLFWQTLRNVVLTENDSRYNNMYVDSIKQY
Procedure: (§1) The payload compounds of Formula (II′) were assayed to evaluate their agonistic activity on hTLR7 (human Toll-like receptor 7) and hTLR8 (human Toll-like receptor 8). Reporter cells lines (HEK-Blue hTLR7 and HEK-Blue hTLR8) were obtained from InvivoGen. Cells were cryopreserved in liquid nitrogen per supplier's instruction. Upon test, the cells were thawed, passaged and cultured in the growth media of DMEM supplemented with 10% fetal bovine serum, 1×NEAA, 1 mM Pyruvate, 2 mM glutamine, […] in the presence of the following antibiotics, as shown as Table 1. Test compounds (at desired concentrations diluted) were added to the 96-well assay plate, 0.5 μL per well. Reporter cells were harvested from the tissue culture flasks by incubation in PBS at 37° C. for two minutes after the media in the flask is removed and cells rinsed with PBS. Cells were counted and diluted in the HEK-Blue Detection media at 50000 cells/mL and incubated for 24 hours at 37° C., in a 5% CO2 humidified incubator. Then 20 μL of cell supernatant were added to the assay plate containing the 180 µL of QUANTI-Blue, incubated for 1 hour at 37° C. Optical density at 650 nm was analyzed using an Envision (Perkin Elmer) plate reader.

[2] = target: T2, hTLR7 (human Toll-like receptor 7) (Homo sapiens, UniProt Q9NYK1); test: hTLR7 cell assay (HEK-Blue hTLR7 reporter cells); format: cell-based; settings: 24 hours, OD 650 nm
T2 construct: host or cells: HEK-Blue hTLR7 (HEK293-derived reporter cells)
T2 sequence (Q9NYK1 27-1049): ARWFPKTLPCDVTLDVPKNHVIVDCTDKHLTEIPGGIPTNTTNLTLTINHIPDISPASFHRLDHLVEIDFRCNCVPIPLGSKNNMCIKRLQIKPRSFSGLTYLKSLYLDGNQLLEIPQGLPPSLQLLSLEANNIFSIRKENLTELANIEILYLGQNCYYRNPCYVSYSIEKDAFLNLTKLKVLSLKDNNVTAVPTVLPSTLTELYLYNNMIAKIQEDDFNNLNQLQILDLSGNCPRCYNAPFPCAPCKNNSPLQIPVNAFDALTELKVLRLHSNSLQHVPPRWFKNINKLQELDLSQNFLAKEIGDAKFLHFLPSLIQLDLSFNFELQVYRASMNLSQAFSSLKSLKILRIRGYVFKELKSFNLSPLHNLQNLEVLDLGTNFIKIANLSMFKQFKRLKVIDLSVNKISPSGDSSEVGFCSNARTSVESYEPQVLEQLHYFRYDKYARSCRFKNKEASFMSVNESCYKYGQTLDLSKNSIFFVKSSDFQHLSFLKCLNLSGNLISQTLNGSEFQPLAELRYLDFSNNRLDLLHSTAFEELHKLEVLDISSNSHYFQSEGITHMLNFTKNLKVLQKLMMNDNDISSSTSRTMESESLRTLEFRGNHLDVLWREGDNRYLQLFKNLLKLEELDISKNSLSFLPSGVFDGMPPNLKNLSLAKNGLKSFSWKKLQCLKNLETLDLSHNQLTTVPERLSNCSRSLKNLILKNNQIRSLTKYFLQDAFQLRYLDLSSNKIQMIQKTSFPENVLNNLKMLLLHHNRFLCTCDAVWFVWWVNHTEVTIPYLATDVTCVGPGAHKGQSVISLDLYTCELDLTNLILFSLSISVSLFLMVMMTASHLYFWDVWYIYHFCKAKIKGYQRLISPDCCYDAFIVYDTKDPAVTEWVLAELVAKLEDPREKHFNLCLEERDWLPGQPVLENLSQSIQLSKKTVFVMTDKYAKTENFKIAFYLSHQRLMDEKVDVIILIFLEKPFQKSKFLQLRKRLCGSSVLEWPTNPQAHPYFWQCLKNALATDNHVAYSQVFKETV
Procedure: as §1

Q: For `CCCC(C)c1nc2c(N)nc3cc(Cc4ccccc4)ccc3c2n1CC(C)(C)OCCN` (racemic) [Compound 28, 1-(2-(2-aminoethoxy)-2-methylpropyl)-7-benzyl-2-(pentan-2-yl)-1H-imidazo[4,5-c]quinolin-4-amine], which EC50 [1] is on record?
A: < 5 µM

Q: And the EC50 [2]?
A: > 10 µM

Q: Which EC50 [1] does the source give for `CCOCc1nc2c(N)nc3cc(Cc4ccc(CN)cc4)ccc3c2n1CC(C)(C)O` [Compound 1, 1-(4-amino-7-(4-(aminomethyl)benzyl)-2-(ethoxymethyl)-1H-imidazo[4,5-c]quinolin-1-yl)-2-methylpropan-2-ol] here?
A: > 20 µM

Q: What about the EC50 [2] of the same compound?
A: > 10 µM

Q: `CCOCc1nc2c(N)nc3cc(Cc4cccc(CCN)c4)ccc3c2n1CC(C)(C)O` [Compound 5, 1-(4-amino-7-(3-(2-aminoethyl)benzyl)-2-(ethoxymethyl)-1H-imidazo[4,5-c]quinolin-1-yl)-2-methylpropan-2-ol] was tested. Which EC50 [1] did it give?
A: 5 to 20 µM

Q: And the EC50 [2]?
A: 1 to 10 µM

Q: For `CCOCc1nc2c(N)nc3cc(Cc4ccc(C(=O)NCCN)cc4)ccc3c2n1CC(C)(C)O` [Compound 6, 4-((4-amino-2-(ethoxymethyl)-1-(2-hydroxy-2-methylpropyl)-1H-imidazo[4,5-c]quinolin-7-yl)methyl)-N-(2-aminoethyl)benzamide], which EC50 [1] is on record?
A: > 20 µM

Q: And the EC50 [2]?
A: > 10 µM

Q: Which EC50 [1] does the source give for `CCOCc1nc2c(N)nc3cc(Cc4ccc(NC(=O)NCCN)cc4)ccc3c2n1CC(C)(C)O` [Compound 7, 1-(4-((4-amino-2-(ethoxymethyl)-1-(2-hydroxy-2-methylpropyl)-1H-imidazo[4,5-c]quinolin-7-yl)methyl)phenyl)-3-(2-aminoethyl)urea] here?
A: 5 to 20 µM

Q: What about the EC50 [2] of the same compound?
A: > 10 µM

Q: Which results are given for `CCCC(C)c1nc2c(N)nc3cc(Cc4ccc(CCN)cc4)ccc3c2n1CC(C)(C)O` (stereo not shown) [Compound 8, 1-(4-amino-7-(4-(2-aminoethyl)benzyl)-2-(pentan-2-yl)-1H-imidazo[4,5-c]quinolin-1-yl)-2-methylpropan-2-ol]?
A: EC50 [1]: < 5 µM; EC50 [2]: 1 to 10 µM

Q: How did the EC50 [1] turn out when `CCC[C@H](C)c1nc2c(N)nc3cc(Cc4ccc(CCN)cc4)ccc3c2n1CC(C)(C)O` [Compound 10, (S)-1-(4-amino-7-(4-(2-aminoethyl)benzyl)-2-(pentan-2-yl)-1H-imidazo[4,5-c]quinolin-1-yl)-2-methylpropan-2-ol] was run?
A: > 20 µM

Q: And the EC50 [2]?
A: > 10 µM

Q: What does the source list for `CCCC(C)c1nc2c(N)nc3cc(Cc4ccc(CCCN)cc4)ccc3c2n1CC(C)(C)O` (stereo not shown) [Compound 11, 1-(4-amino-7-(4-(3-aminopropyl)benzyl)-2-(pentan-2-yl)-1H-imidazo[4,5-c]quinolin-1-yl)-2-methylpropan-2-ol]?
A: EC50 [1]: < 5 µM; EC50 [2]: 1 to 10 µM

Q: Which EC50 [1] does the source give for `CCCC(C)c1nc2c(N)nc3cc(Cc4cccc(CN)c4)ccc3c2n1CC(C)(C)O` (stereo not shown) [Compound 12, 1-(4-amino-7-(3-(aminomethyl)benzyl)-2-(pentan-2-yl)-1H-imidazo[4,5-c]quinolin-1-yl)-2-methylpropan-2-ol] here?
A: < 5 µM

Q: What about the EC50 [2] of the same compound?
A: 1 to 10 µM

Q: What does the source list for `CCCC(C)c1nc2c(N)nc3cc(Cc4cccc(CCN)c4)ccc3c2n1CC(C)(C)O` (stereo not shown) [Compound 13, 1-(4-amino-7-(3-(2-aminoethyl)benzyl)-2-(pentan-2-yl)-1H-imidazo[4,5-c]quinolin-1-yl)-2-methylpropan-2-ol]?
A: EC50 [1]: < 5 µM; EC50 [2]: 1 to 10 µM

Q: With `CCCC(C)c1nc2c(N)nc3cc(Cc4cccc(CCCN)c4)ccc3c2n1CC(C)(C)O` (stereo not shown) [Compound 14, 1-(4-amino-7-(3-(3-aminopropyl)benzyl)-2-(pentan-2-yl)-1H-imidazo[4,5-c]quinolin-1-yl)-2-methylpropan-2-ol] as the compound, how does the EC50 [1] read?
A: 5 to 20 µM

Q: What about the EC50 [2] of the same compound?
A: 1 to 10 µM

Q: For `CCOCc1nc2c(N)nc3cc(Cc4ccc(CCN)cc4)ccc3c2n1CC(C)(C)OCCNC(=O)C(C)(C)N` [Compound 21], which EC50 [1] is on record?
A: > 20 µM

Q: And the EC50 [2]?
A: < 1 µM

Q: What does the source list for `CCOCc1nc2c(N)nc3cc(Cc4ccc(CCN)cc4)ccc3c2n1CC(C)(C)OCCNC(=O)C(C)C` [Compound 22, N-(2-((1-(4-amino-7-(4-(2-aminoethyl)benzyl)-2-(ethoxymethyl)-1H-imidazo[4,5-c]quinolin-1-yl)-2-methylpropan-2-yl)oxy)ethyl)isobutyramide]?
A: EC50 [1]: > 20 µM; EC50 [2]: 1 to 10 µM

Q: With `CCOCc1nc2c(N)nc3cc(Cc4ccc(CCN(C)C)cc4)ccc3c2n1CC(C)(C)OCCN` [Compound 24, 1-(2-(2-aminoethoxy)-2-methylpropyl)-7-(4-(2-(dimethylamino)ethyl)benzyl)-2-(ethoxymethyl)-1H-imidazo[4,5-c]quinolin-4-amine] as the compound, how does the EC50 [1] read?
A: > 20 µM

Q: What about the EC50 [2] of the same compound?
A: > 10 µM

Q: What does the source list for `CCOCc1nc2c(N)nc3cc(Cc4ccc(CCN5CCCC5)cc4)ccc3c2n1CC(C)(C)OCCN` [Compound 25, 1-(2-(2-aminoethoxy)-2-methylpropyl)-2-(ethoxymethyl)-7-(4-(2-(pyrrolidin-1-yl)ethyl)benzyl)-1H-imidazo[4,5-c]quinolin-4-amine]?
A: EC50 [1]: > 20 µM; EC50 [2]: > 10 µM

Q: For `CCOCc1nc2c(N)nc3cc(Cc4ccc(CCN)cc4)ccc3c2n1CC(C)(C)OCCN1CCCC1` [Compound 26, 7-(4-(2-aminoethyl)benzyl)-2-(ethoxymethyl)-1-(2-methyl-2-(2-(pyrrolidin-1-yl)ethoxy)propyl)-1H-imidazo[4,5-c]quinolin-4-amine], which EC50 [1] is on record?
A: > 20 µM

Q: What about the EC50 [2] of the same compound?
A: 1 to 10 µM

Q: For `CCOCc1nc2c(N)nc3cc(Cc4ccc(CC(N)=O)cc4)ccc3c2n1CC(C)(C)OCCN` [Compound 27, 2-[4-({4-amino-1-[2-(2-aminoethoxy)-2-methylpropyl]-2-(ethoxymethyl)imidazo[4,5-c]quinolin-7-yl}methyl)phenyl]acetamide], which EC50 [1] is on record?
A: > 20 µM

Q: What about the EC50 [2] of the same compound?
A: 1 to 10 µM

Q: Which EC50 [1] does the source give for `CCC[C@H](C)c1nc2c(N)nc3cc(Cc4ccccc4)ccc3c2n1CC(C)(C)OCCN` [Compound 29, (S)-1-(2-(2-aminoethoxy)-2-methylpropyl)-7-benzyl-2-(pentan-2-yl)-1H-imidazo[4,5-c]quinolin-4-amine] here?
A: > 20 µM

Q: And the EC50 [2]?
A: > 10 µM

Q: Which results are given for `CCCCc1nc2c(N)nc3cc(Cc4ccccc4)ccc3c2n1CC(C)(C)OCCN` [Compound 31]?
A: EC50 [1]: < 5 µM; EC50 [2]: < 1 µM

Q: What does the source list for `CCOCc1nc2c(N)nc3cc(Cc4ccccc4)ccc3c2n1CC(C)(C)OCCCN` [Compound 33]?
A: EC50 [1]: 5 to 20 µM; EC50 [2]: 1 to 10 µM
